The values that follow come from patent publication US20260053171A1, “METHANOGEN INHIBITORS” (AGRIZERONZ LIMITED PARTNERSHIP, priority 2022, published 2026).

The test system of the assay is methane production in rumen fluid. The assay is described as follows: Rumen in vitro (RIV) assay, methane production from rumen fluid incubations. It counts as cell-based, cattle. The following applies: Bos taurus, read-out: RIV % methane reduction +/− SD. As to the method:
The compounds of the present invention were initially screened for activity using an in vitro fully automated incubation system for the measurement of total gas production and gas composition (methane and hydrogen). The system used is described in detail in the paper by Muetzel et al. (2014; Animal Feed Science and Technology 196, 1-11). The system in this specification is referred to as the rumen in vitro system or RIV. The RIV system provides a relatively simple tool for determining the rate and production of methane and also whether the rate and production of methane is inhibited or reduced by a particular compound or feed. Rumen in vitro assays use rumen fluid from donor animals (typically either sheep or cattle) which is typically combined with a buffer and then incubated in sealed fermentation vessels at 39° C. for either 24 or 48 h. These assays systems have been well-characterised and used by the scientific community over the last two decades (Rymer et al. 2005). The system that has been used here to characterise the effects of inhibitors on methane production and gas production, and the formation of H2, was described by Muetzel et al. (2014). Rumen in vitro assay systems reflect what can occur in the rumen in vivo, but only short-term, due to their short incubation times (typically not exceeding 48 h) which is limited by its buffering capacity and the fact that it is a closed system. Stock solutions of inhibitors were re-suspended in dimethylformamide (DMF) at concentrations 1000-fold higher than the highest used for the assays. Any further dilutions were also prepared using DMF. The total amount of inhibitor solution added to the rumen fluid-buffer mixture (60 mL) was 60 μl. Incubations used 60 ml of medium containing 12 ml of filtered rumen fluid and 48 ml of buffer in serum bottles for 24-48 h, essentially as described by Muetzel et al. (2014). Two fistulated cattle were used as donor animals for rumen fluid and treatments were incubated in duplicate bottles. Sets of duplicate incubation vials that contained ryegrass (with rumen fluid-buffer mixture), and ryegrass with 30 μM bromoethanesulfonate (BES) were also incubated as negative and positive controls, respectively. One experiment consists of 2 replicates of an inhibitor at any one concentration run at the same time, and a run can contain up to 32 bottle, including positive (30 µM BES) and negative (no inhibitor added) controls. Compound 1, for example, was tested using the 60 mL rumen in vitro assay system at 50 μM, 10 μM, and 2 μM final concentrations and compared to a positive control with 30 µM BES.

The structures appear in SMILES notation.

`O=C(O)CCC(=O)N1N=C(c2cccc(-c3ccccc3)c2)CC1c1ccc2nccnc2c1` (centres unmarked) [Compound 13, 4-(3-([1,1′-Biphenyl]-3-yl)-5-(quinoxalin-6-yl)-4,5-dihydro-1H-pyrazol-1-yl)-4-oxobutanoic acid]: the inhibition at 2 µM came to 5 ± 0.4%, the inhibition at 10 µM was determined as 74.4 ± 3.3% and the inhibition at 50 µM was determined as 97.2 ± 0.1%.

Take `O=C(O)CCC(=O)N1N=C(c2cccc(-c3ccc(OC(F)(F)F)cc3)c2)CC1c1ccc2nccnc2c1` (centres unmarked) [Compound 14, 4-Oxo-4-(5-(quinoxalin-6-yl)-3-(4′-(trifluoromethoxy)-[1,1′-biphenyl]-3-yl)-4,5-dihydro-1H-pyrazol-1-yl)butanoic acid]: the inhibition at 2 µM was less than 5%, the inhibition at 10 µM came to 72.4 ± 0.8% and the inhibition at 50 µM is 95.4%.

On to `O=C(O)CCC(=O)N1N=C(c2ccc(-c3ccccc3)cc2)CC1c1ccc2nccnc2c1` (centres unmarked) [Compound 15, 4-(3-([1,1′-Biphenyl]-4-yl)-5-(quinoxalin-6-yl)-4,5-dihydro-1H-pyrazol-1-yl)-4-oxobutanoic acid], for which the inhibition at 2 µM was less than 5%, the inhibition at 10 µM was determined as 60.1 ± 1% and the inhibition at 50 µM was found to be 87.8 ± 1.6%.

Consider `O=C(O)CCC(=O)N1N=C(c2ccc(-c3ccc(F)cc3)cc2)CC1c1ccc2nccnc2c1` (centres unmarked) [Compound 16, 4-(3-(4′-Fluoro-[1,1′-biphenyl]-4-yl)-5-(quinoxalin-6-yl)-4,5-dihydro-1H-pyrazol-1-yl)-4-oxobutanoic acid], for which the inhibition at 2 µM is less than 5%, the inhibition at 10 µM came out at 77.5 ± 2.1% and the inhibition at 50 µM amounted to 96.6 ± 0.2%.

As to `O=C(O)CCC(=O)N1N=C(c2ccc(-c3ccccc3Cl)cc2)CC1c1ccc2nccnc2c1` (centres unmarked) [Compound 17, 4-(3-(2′-Chloro-[1,1′-biphenyl]-4-yl)-5-(quinoxalin-6-yl)-4,5-dihydro-1H-pyrazol-1-yl)-4-oxobutanoic acid], the inhibition at 2 µM is less than 5%, the inhibition at 10 µM worked out at 74.2 ± 7.8% and the inhibition at 50 µM worked out at 90 ± 1.2%.

`O=C(O)CCC(=O)N1N=C(c2ccc(-c3cccc(Cl)c3)cc2)CC1c1ccc2nccnc2c1` (centres unmarked) [Compound 18, 4-(3-(3′-Chloro-[1,1′-biphenyl]-4-yl)-5-(quinoxalin-6-yl)-4,5-dihydro-1H-pyrazol-1-yl)-4-oxobutanoic acid]: the inhibition at 2 µM was less than 5%, the inhibition at 10 µM is 83.6 ± 1.5% and the inhibition at 50 µM was found to be 94.1 ± 0.1%.

Regarding `O=C(O)CCC(=O)N1N=C(c2ccc(-c3ccc(C(F)(F)F)cc3)cc2)CC1c1ccc2nccnc2c1` (centres unmarked) [Compound 20, 4-Oxo-4-(5-(quinoxalin-6-yl)-3-(4′-(trifluoromethyl)-[1,1′-biphenyl]-4-yl)-4,5-dihydro-1H-pyrazol-1-yl)butanoic acid], the inhibition at 10 µM is 37.2 ± 5.9%.

With `O=C(O)CCC(=O)N1N=C(c2ccc(-c3cccc(OC(F)(F)F)c3)cc2)CC1c1ccc2nccnc2c1` (centres unmarked) [Compound 21, 4-Oxo-4-(5-(quinoxalin-6-yl)-3-(3′-(trifluoromethoxy)-[1,1′-biphenyl]-4-yl)-4,5-dihydro-1H-pyrazol-1-yl)butanoic acid], the inhibition at 2 µM was determined as 15.8 ± 1.1%, the inhibition at 10 µM is 91.9 ± 1.5% and the inhibition at 50 µM turned out to be 97.9%.

Turning to `O=C(O)CCC(=O)N1N=C(c2ccc(-c3ccc(OC(F)(F)F)cc3)cc2)CC1c1ccc2nccnc2c1` (centres unmarked) [Compound 22, 4-Oxo-4-(5-(quinoxalin-6-yl)-3-(4′-(trifluoromethoxy)-[1,1′-biphenyl]-4-yl)-4,5-dihydro-1H-pyrazol-1-yl)butanoic acid], the inhibition at 2 µM came to 23.8 ± 1.1%, the inhibition at 10 µM was found to be 85.1 ± 0.8% and the inhibition at 50 µM turned out to be 94.7 ± 0.8%.

Consider `Cc1ccc(-c2ccc(C3=NN(C(=O)CCC(=O)O)C(c4ccc5nccnc5c4)C3)cc2)cc1` (centres unmarked) [Compound 23, 4-(3-(4′-Methyl-[1,1′-biphenyl]-4-yl)-5-(quinoxalin-6-yl)-4,5-dihydro-1H-pyrazol-1-yl)-4-oxobutanoic acid], for which the inhibition at 10 µM was 69 ± 3.7% and the inhibition at 50 µM is 94.8 ± 0.4%.

For `CC(C)c1ccc(-c2ccc(C3=NN(C(=O)CCC(=O)O)C(c4ccc5nccnc5c4)C3)cc2)cc1` (centres unmarked) [Compound 24, 4-(3-(4′-Isopropyl-[1,1′-biphenyl]-4-yl)-5-(quinoxalin-6-yl)-4,5-dihydro-1H-pyrazol-1-yl)-4-oxobutanoic acid], the inhibition at 2 µM turned out to be 21.8%, the inhibition at 10 µM was found to be 94.1 ± 0.3% and the inhibition at 50 µM worked out at 97.8 ± 0.05%.

Regarding `COc1ccc(-c2ccc(C3=NN(C(=O)CCC(=O)O)C(c4ccc5nccnc5c4)C3)cc2)cc1` (centres unmarked) [Compound 25, 4-(3-(4′-Methoxy-[1,1′-biphenyl]-4-yl)-5-(quinoxalin-6-yl)-4,5-dihydro-1H-pyrazol-1-yl)-4-oxobutanoic acid], the inhibition at 2 µM is less than 5% and the inhibition at 10 µM is 83.7 ± 0.4%.

With `O=C(O)CCC(=O)N1N=C(c2ccc(-c3ccc(Cl)cc3Cl)cc2)CC1c1ccc2nccnc2c1` (centres unmarked) [Compound 26, 4-(3-(2′,4′-Dichloro-[1,1′-biphenyl]-4-yl)-5-(quinoxalin-6-yl)-4,5-dihydro-1H-pyrazol-1-yl)-4-oxobutanoic acid], the inhibition at 10 µM was found to be 65.8 ± 3.7% and the inhibition at 50 µM stood at 96 ± 1.1%.

With `O=C(O)CCC(=O)N1N=C(c2ccc(-c3ccc(Cl)c(Cl)c3)cc2)CC1c1ccc2nccnc2c1` (centres unmarked) [Compound 27, 4-(3-(3′,4′-Dichloro-[1,1′-biphenyl]-4-yl)-5-(quinoxalin-6-yl)-4,5-dihydro-1H-pyrazol-1-yl)-4-oxobutanoic acid], the inhibition at 10 µM was 48.3 ± 7.5% and the inhibition at 50 µM is 92.1 ± 1.1%.

On to `O=C(O)CCC(=O)N1N=C(c2ccc(-c3cc(Cl)cc(Cl)c3)cc2)CC1c1ccc2nccnc2c1` (centres unmarked) [Compound 28, 4-(3-(3′,5′-Dichloro-[1,1′-biphenyl]-4-yl)-5-(quinoxalin-6-yl)-4,5-dihydro-1H-pyrazol-1-yl)-4-oxobutanoic acid], for which the inhibition at 2 µM worked out at 8 ± 2.1%, the inhibition at 10 µM amounted to 84 ± 0.8% and the inhibition at 50 µM was found to be 96.1 ± 0.1%.

Regarding `O=C(O)CCC(=O)N1N=C(c2ccc(-c3ccccc3)cn2)CC1c1ccc2nccnc2c1` (centres unmarked) [Compound 29, 4-Oxo-4-(3-(5-phenylpyridin-2-yl)-5-(quinoxalin-6-yl)-4,5-dihydro-1H-pyrazol-1-yl)butanoic acid], the inhibition at 50 µM came to 33.3 ± 0.6%.

Consider `O=C(O)CCC(=O)N1N=C(c2ccc(-c3cccnc3)cc2)CC1c1ccc2nccnc2c1` (centres unmarked) [Compound 30, 4-Oxo-4-(3-(4-(pyridin-3-yl)phenyl)-5-(quinoxalin-6-yl)-4,5-dihydro-1H-pyrazol-1-yl)butanoic acid], for which the inhibition at 50 µM turned out to be 9.3 ± 2.8%.

`O=C(O)CCC(=O)N1N=C(c2ccc3ccccc3c2)CC1c1ccc2nccnc2c1` (centres unmarked) [Compound 31, 4-(3-(Naphthalen-2-yl)-5-(quinoxalin-6-yl)-4,5-dihydro-1H-pyrazol-1-yl)-4-oxobutanoic acid]: the inhibition at 50 µM came out at 56.6 ± 6.9%.

For the compound `O=C(O)CCC(=O)N1N=C(c2ccc(Cl)cc2)CC1c1cnc2ccccc2n1` (centres unmarked) [Compound 32, 4-(3-(4-Chlorophenyl)-5-(quinoxalin-2-yl)-4,5-dihydro-1H-pyrazol-1-yl)-4-oxobutanoic acid], the inhibition at 10 µM is less than 5% and the inhibition at 50 µM was determined as 81 ± 2%.

For `O=C(O)CCC(=O)N1N=C(c2ccc(Cl)cc2)CC1c1cccc2nccnc12` (centres unmarked) [Compound 33, 4-(3-(4-Chlorophenyl)-5-(quinoxalin-5-yl)-4,5-dihydro-1H-pyrazol-1-yl)-4-oxobutanoic acid], the inhibition at 50 µM was 18.4 ± 3.7%.

Consider `O=C(O)CCC(=O)N1N=C(c2ccc(Cl)cc2)CC1c1ccc2cccnc2c1` (centres unmarked) [Compound 34, 4-(3-(4-Chlorophenyl)-5-(quinolin-7-yl)-4,5-dihydro-1H-pyrazol-1-yl)-4-oxobutanoic acid], for which the inhibition at 50 µM turned out to be 22 ± 2.1%.

As to `O=C(O)CCC(=O)N1N=C(c2ccc(Cl)cc2)CC1c1ccc2nonc2c1` (centres unmarked) [Compound 35, 4-(5-(Benzo[c][1,2,5]oxadiazol-5-yl)-3-(4-chlorophenyl)-4,5-dihydro-1H-pyrazol-1-yl)-4-oxobutanoic acid], the inhibition at 10 µM came to 43.6 ± 6.6% and the inhibition at 50 µM came out at 91.3 ± 2.1%.

Turning to `O=C(O)CCC(=O)N1N=C(c2ccc(Cl)cc2)CC1c1ccc2nsnc2c1` (centres unmarked) [Compound 36, 4-(5-(Benzo[c][1,2,5]thiadiazol-5-yl)-3-(4-chlorophenyl)-4,5-dihydro-1H-pyrazol-1-yl)-4-oxobutanoic acid], the inhibition at 10 µM came out at 33.4 ± 2.3% and the inhibition at 50 µM was 91.3 ± 0.2%.
